Results from patent US9975896B2, “Inhibitors of transcription factors and uses thereof” (Dana-Farber Cancer Institute, Inc., priority 2013, dated 2018).
Read-outs that look alike come from different tables or passages of the source.

Assays:
BRD4 = BRD4 (Homo sapiens, UniProt O60885); experiment: In vitro AlphaScreen protein binding assay (competition with biotinylated JQ1)
Procedure: Assays were performed with minor modifications from the manufacturer's protocol (PerkinElmer, USA). All reagents were diluted in 50 mM HEPES, 150 mM NaCl, 0.1% w/v BSA, and 0.01% w/v Tween® 20 at pH 7.5 and allowed to equilibrate to room temperature prior to addition to plates. After addition of Alpha beads to master solutions, all subsequent steps were performed in low light conditions. […] After a 1000-rpm spin-down for 1 minute, 100 nL of the solutions of compounds of the invention in DMSO from stock plates were added by pin transfer using a Janus Workstation (PerkinElmer, USA). The streptavidin-coated donor beads (25 μg/ml final) were added as with previous solution in a 2×, 10 μL volume. Following this addition, the plates were sealed with foil to block light exposure and to prevent evaporation. The plates were spun down again at 1000 rpm for 1 minute. Next, the plates were incubated in the room with the plate reader (for temperature equilibration) for 1 hour prior to reading the assay. Signal is stable for up to 3 hours after donor bead addition.

[1] = tested on: BRD4-dependent Nut-Midline Carcinoma line 797; experiment: Cell viability (ATPlite) in BRD4 dependant cell line 797; details: Homo sapiens
[2] = tested on: lung carcinoma cell line H2171; experiment: Cellular IC50 in lung carcinoma cell line H2171; assay type: cell-based
Procedure: Cells (e.g., BRD4 dependant cells) were counted and adjusted to 60,000 cells/mL. Using a Biotek EL406, 50 μL of the cells in media were distributed into 384 well white plates from Thermo. Immediately after plating, compounds of the invention in DMSO were distributed to plates. For large plate sets, cells were returned to a 37° C. incubator while not in use. The compounds were added to plates using a 100 nL 384 well pin transfer manifold on a Janus workstation. Stocks were arrayed in 10 point quadruplicate dose response in DMSO stock in 384-well Greiner compound plates. After addition of the compounds, plates were incubated for three days in a 37° C. incubator. Cell viability was read out using ATPlite from Perkin Elmer. Plates were removed from the incubator and brought to room temperature prior to use. Lyophilized powder was resuspended in lysis buffer and diluted 1:2 with DI water. 25 μL of this solution was added to each well using the Biotek liquid handler. Plates were sealed with adherent aluminum seals prior to vortexing and spinning down at 1000 g for 1 minute. Plates were incubated for 15 minutes at room temperature before signal was read on an Envision Plate Reader.

[3] = read-out: BRD4--IC50, Table 7, biochemical
[4] = Table 1, in vitro, AlphaScreen, inhibiting the activity of BRD4
[5] = read-out: BRD4--IC50, Table 6, biochemical
[6] = read-out: BRD4--IC50, Table 5, biochemical

Row | EC50 ([1]; read-out: 797--EC50 (μM)) | IC50 (BRD4; [4]) | EC50 [1] | IC50 (BRD4; [5]) | Compound | other results
1 | 8.29 µM |  |  |  | Cc1noc(C)c1-c1ccc(-c2nc3cnccn3c2NC(C)(C)C)nc1 [UMB54, N-(tert-butyl)-2-(5-(3,5-dimethylisoxazol-4-yl)pyridin-2-yl)imidazo[1,2-a]pyrazin-3-amine] | IC50 (BRD4; [3]): 12.9 µM
2 |  | 68.3 µM | 12.4 µM |  | Cc1noc2ccc(-c3ccc(-c4nc5ccccn5c4NCc4ccccc4)cc3)cc12 [UMB22] | 
3 | 0.494 µM |  |  | 0.807 µM | Cc1noc(C)c1-c1ccc(-c2nc3cnccn3c2NC(C)C)cc1 [UMB57, 2-(4-(3,5-dimethylisoxazol-4-yl)phenyl)-N-isopropylimidazo[1,2-a]pyrazin-3-amine] | 
4 | 12.8 µM |  |  |  | Cc1noc(C)c1-c1ccc(-c2nc3cnccn3c2NC(C)(C)C)cc1F [UMB55, N-(tert-butyl)-2-(4-(3,5-dimethylisoxazol-4-yl)-3-fluorophenyl)imidazo[1,2-a]pyrazin-3-amine] | IC50 (BRD4; [3]): 13 µM
5 | 2.04 µM | 0.479 µM | 2.04 µM | 0.479 µM | Cc1noc(C)c1-c1ccc(-c2nc3ccccn3c2NC(C)(C)C)cc1 [UMB29, N-(t-Butyl)-2-(4-(3,5-dimethylisoxazol-4-yl)phenyl)imidazo[1,2-α]pyridin-3-amine] | 
6 | 20.7 µM | 31.5 µM | 20.7 µM | 31.5 µM | COc1ccc(Nc2c(-c3ccc(-c4c(C)noc4C)cc3)nc3ccc(Cl)cn23)cc1 [UMB23, 6-Chloro-2-(4-(3,5-dimethylisoxazol-4-yl)phenyl)-N-(4-methoxy-phenyl)imidazo-[1,2-α]pyridine-3-amine] | 
7 | 2.19 µM | 1.17 µM | 2.19 µM | 1.17 µM | Cc1noc(C)c1-c1ccc(-c2nc3ccc(Cl)cn3c2NC(C)(C)C)cc1 [UMB31, N-(t-Butyl)-6-chloro-2-(4-(3,5-dimethylisoxazol-4-yl)phenyl)-imidazo-[1,2-α]pyridin-3-amine] | 
8 |  |  |  | 20.7 µM | Cc1noc(C)c1-c1ccc(-c2nc3ccncn3c2NC(C)(C)C)cc1 [UMB56, N-(Tert-butyl)-2-(4-(3,5-dimethylisoxazol-4-yl)phenyl)imidazo[1,2-c]pyrimidin-3-amine] | 
9 | > 100 µM |  |  |  | Cc1noc(C)c1-c1ccc(-c2nc3cnccn3c2NC(C)(C)C)cn1 [UMB53, N-(tert-butyl)-2-(6-(3,5-dimethylisoxazol-4-yl)pyridin-3-yl)imidazo[1,2-a]pyrazin-3-amine] | IC50 (BRD4; [3]): 51.9 µM
10 | 7.36 µM | 2.76 µM | 7.36 µM | 2.76 µM | COc1ccc(Nc2c(-c3ccc(-c4c(C)noc4C)cc3)nc3ccccn23)cc1 [UMB30, 2-(4-(3,5-Dimethylisoxazol-4-yl)phenyl)-N-(4-methoxyphenyl)imidazo-[1,2-α]pyridin-3-amine] | 
11 | 11.8 µM | 2.89 µM | 11.8 µM | 2.89 µM | COc1ccc(Nc2c(-c3ccc(-c4c(C)noc4C)cc3)nc3cc(OC)ncn23)cc1 [UMB24, 2-(4-(3,5-Dimethylisoxazol-4-yl)phenyl)-7-methoxy-N-(4-methoxy-phenyl)imidazo[1,2-c]pyrimidin-3-amine] | 
12 |  | 5.1 µM | 20.2 µM |  | Cc1noc(C)c1-c1cccc(-c2nc3ccccn3c2NCc2ccccc2)c1 [UMB26] | 
13 | 5.07 µM | 0.904 µM | 5.07 µM | 0.904 µM | Cc1noc(C)c1-c1ccc(-c2nc3ccccn3c2NC2CCCCC2)cc1 [UMB28, N-Cyclohexyl-2-(4-(3,5-dimethylisoxazol-4-yl)phenyl)imidazo[1,2-α]pyridin-3-amine] | 
14 | > 100 µM | 2.05 µM | 207 µM |  | Cc1noc(C)c1-c1cccc(C2Nc3ccccc3NC3=C2C(=O)OC3)c1 (stereo not drawn) [UMB27, 10-(3-(3,5-Dimethylisoxazol-4-yl)phenyl)-3,4,9,10-tetrahydro-1H-benzo[b]furo[3,4-e][1,4]diazepin-1-one] | IC50 (BRD4; [6]): 2.05 µM

More lines, now with the values behind:

Row | Compound | EC50 ([1]; read-out: 797--EC50 (μM)) | IC50 (BRD4; [4]) | EC50 [1] | IC50 (BRD4; [5]) | other results
15 | Cc1noc(C)c1-c1ccc(-c2nc3ccccn3c2N)cc1 [Compound 12a, 2-(4-(3,5-Dimethylisoxazol-4-yl)phenyl)imidazo[1,2-a]pyridin-3-amine] |  |  |  | 3.89 µM | 
16 | COc1ccc(Nc2c(-c3ccc(-c4c(C)noc4C)cc3)nc3cnccn23)cc1 [UMB25, 2-(4-(3,5-Dimethylisoxazol-4-yl)phenyl)-N-(4-methoxyphenyl)imidazo[1,2-a]pyrazin-3-amine] | 32.8 µM |  | 32.8 µM | 7.86 µM | 
17 | Cc1noc(C)c1-c1ccc(-c2nc3cnccn3c2NCC(=O)OC(C)(C)C)cc1 [Compound 24a, Tert-butyl (2-(4-(3,5-dimethylisoxazol-4-yl)phenyl)imidazo[1,2-a]pyrazin-3-yl)glycinate] |  |  |  | 4.96 µM | 
18 | CCOC(=O)CNc1c(-c2ccc(-c3c(C)noc3C)cc2)nc2cnccn12 [Compound 23a, Ethyl 2-((2-(4-(3,5-dimethylisoxazol-4-yl)phenyl)imidazo[1,2-a]pyrazin-3-yl)amino)acetate] |  |  |  | 4.53 µM | 
19 | Cc1noc(C)c1-c1ccc(-c2nc3cnccn3c2NCc2ccccc2)cc1 [UMB21, N-Benzyl-2-(4-(3,5-dimethylisoxazol-4-yl)phenyl)imidazo[1,2-α]-pyrazin-3-amine] | 49.1 µM | 18.8 µM | 49.1 µM | 18.8 µM | 
20 | Cc1noc(C)c1-c1ccc(-c2nc3ccc(Cl)cn3c2NCc2ccccc2)cc1 [UMB20, N-Benzyl-6-chloro-2-(4-(3,5-dimethylisoxazol-4-yl)phenyl)imidazo[1,2-α]pyridin-3-amine] | 18.4 µM | 11.8 µM | 18.4 µM | 11.8 µM | 
21 | CCCCN1C(=O)c2ccccc2NC(=O)C1c1ccc(-c2c(C)noc2C)c(OC)c1 (stereo not drawn) [UMB18, 2-Butyl-3-(4-(3,5-dimethylisoxazol-4-yl)-3-methoxyphenyl)-2,3-dihydro-1H-benzo[e][1,4]diazepine-1,4(5H)-dione] | 9.91 µM |  |  |  | IC50 (BRD4; [6]): 13 µM
22 | Cc1noc(C)c1-c1ccc(-c2nc3ccc(C(=O)O)cn3c2NC(C)(C)C)cc1 [Compound 30a, 3-(Tert-butylamino)-2-(4-(3,5-dimethylisoxazol-4-yl)phenyl)imidazo[1,2-a]pyridine-6-carboxylic acid] |  |  |  | 0.968 µM | 
23 | Cc1noc(C)c1-c1ccc(-c2nc3cnccn3c2N[C@@H](C)c2ccccc2)cc1 [Compound 21a, (S)-2-(4-(3,5-dimethylisoxazol-4-yl)phenyl)-N-(1-phenylethyl)imidazo[1,2-a]pyrazin-3-amine] |  |  |  | 2.86 µM | 
24 | Cc1ccc2nc(-c3ccc(-c4c(C)noc4C)cc3)c(NC(C)(C)C)n2c1 [Compound 27a, N-(tert-butyl)-2-(4-(3,5-dimethylisoxazol-4-yl)phenyl)-6-methylimidazo[1,2-a]pyridin-3-amine] |  |  |  | 3.17 µM | 
25 | Cc1noc(C)c1-c1ccc(-c2nc3c(C(F)(F)F)cccn3c2NC(C)(C)C)cc1 [Compound 28a, N-(tert-butyl)-2-(4-(3,5-dimethylisoxazol-4-yl)phenyl)-8-(trifluoromethyl)imidazo[1,2-a]pyridin-3-amine] |  |  |  | 11.9 µM | 
26 | Cc1noc(C)c1-c1ccc(-c2nc3ncccn3c2NC(C)(C)C)cc1 [Compound 33a, N-(Tert-butyl)-2-(4-(3,5-dimethylisoxazol-4-yl)phenyl)imidazo[1,2-a]pyrimidin-3-amine] |  |  |  | 0.86 µM | 
27 | COc1cc(-c2c(C)noc2C)ccc1-c1nc2cnccn2c1NC(C)C [Compound 40a, 2-(4-(3,5-dimethylisoxazol-4-yl)-2-methoxyphenyl)-N-isopropylimidazo[1,2-a]pyrazin-3-amine] |  |  |  |  | IC50 (BRD4; [3]): 0.474 µM
28 | Cc1noc(C)c1-c1ccc(-c2nc3cnccn3c2NCC(=O)O)cc1 [Compound 22a, 2-((2-(4-(3,5-Dimethylisoxazol-4-yl)phenyl)imidazo[1,2-a]pyrazin-3-yl)amino)acetic acid] |  |  |  |  | IC50 (BRD4; BRD4--IC50 (μM), Table 6, biochemical): > 100 µM
29 | Cc1noc(C)c1-c1ccc(-c2nc3ccccn3c2NCc2ccccc2)cc1 [UMB11, N-Benzyl-2-(4-(3,5-dimethylisoxazol-4-yl)phenyl)imidazo[1,2-α]pyridin-3-amine] |  |  |  |  | IC50 ([2]; Homo sapiens, NCI-H2171, Table 2, cellular, lung carcinoma cell line H2171): 0.76 µM; cellular activity in H2171 ([2]; text b616): show cellular activity in H2171
30 | CCCCNc1c(-c2ccc(-c3c(C)noc3C)cc2)nc2cnccn12 [Compound 35a, N-butyl-2-(4-(3,5-dimethylisoxazol-4-yl)phenyl)imidazo[1,2-a]pyrazin-3-amine] |  |  |  | 1.66 µM | 
31 | COc1cc(-c2c(C)noc2C)ccc1-c1nc2cnccn2c1NC(C)(C)C [Compound 39a, N-(tert-butyl)-2-(4-(3,5-dimethylisoxazol-4-yl)-2-methoxyphenyl)imidazo[1,2-a]pyrazin-3-amine] |  |  |  |  | IC50 (BRD4; [3]): 0.562 µM
32 | COC(=O)c1ccc2nc(-c3ccc(-c4c(C)noc4C)cc3)c(NC(C)(C)C)n2c1 [Compound 29a, Methyl 3-(tert-butylamino)-2-(4-(3,5-dimethylisoxazol-4-yl)phenyl)imidazo[1,2-a]pyridine-6-carboxylate] |  |  |  | 1.62 µM | 
